Data taken from US11730686B2, “Cosmetic skincare compositions” (THE BOOTS COMPANY PLC, priority 2017, dated 2023).

System: Interleukin-6 (IL-6)
Test: Interleukin-6 (IL-6) assay: UV-stressed skin cells, IL-6 ELISA of media supernatant
Assay type: cell-based
Details: FIG. 2; active alone at 0.0001% by weight of the composition; skin cells (keratinocytes or fibroblasts), UV dose 61,500 Joules/m^2
Experimental: Interleukin-6 (IL-6) Assay Interleukin-6 (IL-6) bioactivity in skin cells was measured. IL-6 is a cytokine and used as a biomarker for inflammation. Skin cells (keratinocytes or fibroblasts) were placed under UV stress to induce an IL-6 response in the presence of an active or blend of actives to determine the activity of that active or blend of actives in inhibiting an IL-6 response. Skin cells (keratinocytes or fibroblasts) were taken from culture, seeded in a 96-well plate at a density of 5000 cells per well in cell growth media with supplements and left to incubate for 24 hours at 37° C. Determination of cell number for the purpose of plating was performed in accordance with standard methods known in the art. After incubation, the cell growth media was replaced with 100 μl of PBS without calcium and magnesium and containing the relevant concentration of active(s) required. Controls include untreated irradiated and non-irradiated samples which require 100 μl pure PBS without calcium and magnesium or containing a maximum of 0.1%. Dimethyl sulfoxide (DMSO) was used where necessary to dissolve the active(s). Salicylic acid is the positive control for this assay. The cells were incubated with the actives for 30 minutes at 37° C. before being irradiated with a UV dose of 61,500 Joules/m^2. […]

Structure (SMILES): CCCCCCCCCCCCCC[C@@H](O)[C@@H](O)[C@@H](N)CO.Cl [phytosphingosine hydrochloride]
- inhibited IL-6 activity: 58%
